Measurements reported in PubChem BioAssay (NCI).
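Compound exposure: 48 hours, 5 concentrations, 96-well plates. The concentration for 50% growth inhibition is given as GI50. TGI: total growth inhibition.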

Assays:
Assay in all cases: DTP human tumour cell line panel, 48 h
COLO 205 colon = tested on: COLO 205 colon
MDA-MB-435 = tested on: MDA-MB-435
SN12C renal = tested on: SN12C renal
SK-MEL-28 melanoma = tested on: SK-MEL-28 melanoma
HOP-62 NSCLC = tested on: HOP-62 NSCLC
TK-10 renal = tested on: TK-10 renal
SNB-19 CNS = tested on: SNB-19 CNS
HL-60(TB) leukemia = tested on: HL-60(TB) leukemia
OVCAR-8 ovarian = tested on: OVCAR-8 ovarian
A549 NSCLC = tested on: A549 NSCLC
OVCAR-3 ovarian = tested on: OVCAR-3 ovarian
RXF 393 renal = tested on: RXF 393 renal
SF-295 CNS = tested on: SF-295 CNS
HCC-2998 colon = tested on: HCC-2998 colon
786-0 renal = tested on: 786-0 renal
KM12 colon = tested on: KM12 colon
MALME-3M melanoma = tested on: MALME-3M melanoma
DU-145 prostate = tested on: DU-145 prostate
UACC-257 melanoma = tested on: UACC-257 melanoma
SF-539 CNS = tested on: SF-539 CNS
CAKI-1 renal = tested on: CAKI-1 renal
U251 CNS = tested on: U251 CNS
OVCAR-5 ovarian = tested on: OVCAR-5 ovarian
HS 578T breast = tested on: HS 578T breast
SK-OV-3 ovarian = tested on: SK-OV-3 ovarian
SW-620 colon = tested on: SW-620 colon
HT29 colon = tested on: HT29 colon
ACHN renal = tested on: ACHN renal
MCF7 breast = tested on: MCF7 breast
HOP-92 NSCLC = tested on: HOP-92 NSCLC
CCRF-CEM leukemia = tested on: CCRF-CEM leukemia
MOLT-4 leukemia = tested on: MOLT-4 leukemia
SNB-75 CNS = tested on: SNB-75 CNS
MDA-MB-231 breast = tested on: MDA-MB-231 breast
NCI-H226 lung = tested on: NCI-H226 lung
UO-31 renal = tested on: UO-31 renal
NCI/ADR-RES ovarian = tested on: NCI/ADR-RES ovarian
SF-268 CNS = tested on: SF-268 CNS
M14 melanoma = tested on: M14 melanoma
OVCAR-4 ovarian = tested on: OVCAR-4 ovarian
SR leukemia = tested on: SR leukemia
NCI-H522 lung = tested on: NCI-H522 lung
A498 renal = tested on: A498 renal
BT-549 breast = tested on: BT-549 breast
RPMI-8226 leukemia = tested on: RPMI-8226 leukemia
LOX IMVI melanoma = tested on: LOX IMVI melanoma
T-47D breast = tested on: T-47D breast
HCT-15 colon = tested on: HCT-15 colon
NCI-H460 lung = tested on: NCI-H460 lung
SK-MEL-5 melanoma = tested on: SK-MEL-5 melanoma
IGROV1 ovarian = tested on: IGROV1 ovarian
K-562 leukemia = tested on: K-562 leukemia
HCT-116 colon = tested on: HCT-116 colon
SK-MEL-2 melanoma = tested on: SK-MEL-2 melanoma

## Cc1cc(Nc2nc(-c3cn(-c4ccc(Cl)cc4)nn3)nc3ccccc23)n[nH]1
COLO 205 colon
  GI50: 38.2 µM
  TGI: > 50 µM
MDA-MB-435
  GI50: 11.6 µM
  TGI: > 50 µM
SN12C renal
  GI50: 10.7 µM
  TGI: > 50 µM
SK-MEL-28 melanoma
  GI50: 21.9 µM
  TGI: > 50 µM
HOP-62 NSCLC
  GI50: 14 µM
  TGI: > 50 µM
TK-10 renal
  GI50: 6.69 µM
  TGI: 39.3 µM
SNB-19 CNS
  GI50: > 50 µM
  TGI: > 50 µM
HL-60(TB) leukemia
  GI50: 18.3 µM
  TGI: > 50 µM
OVCAR-8 ovarian
  GI50: 18.5 µM
  TGI: > 50 µM
A549 NSCLC
  GI50: 11.4 µM
  TGI: > 50 µM
OVCAR-3 ovarian
  GI50: 10.5 µM
  TGI: 23.4 µM
RXF 393 renal
  GI50: 5.09 µM
  TGI: 26.1 µM
SF-295 CNS
  GI50: 7.6 µM
  TGI: 38.5 µM
HCC-2998 colon
  GI50: 36.4 µM
  TGI: > 50 µM
786-0 renal
  GI50: 15.1 µM
  TGI: > 50 µM
KM12 colon
  GI50: 4.95 µM
  TGI: > 50 µM
MALME-3M melanoma
  GI50: 10.8 µM
  TGI: 30.1 µM
DU-145 prostate
  GI50: 10.7 µM
  TGI: > 50 µM
UACC-257 melanoma
  GI50: 33.4 µM
  TGI: > 50 µM
SF-539 CNS
  GI50: 27.3 µM
  TGI: > 50 µM
CAKI-1 renal
  GI50: 2.31 µM
  TGI: 14.7 µM
U251 CNS
  GI50: 9.39 µM
  TGI: > 50 µM
OVCAR-5 ovarian
  GI50: > 50 µM
  TGI: > 50 µM
HS 578T breast
  GI50: > 50 µM
  TGI: > 50 µM
SK-OV-3 ovarian
  GI50: 6.82 µM
  TGI: 48.5 µM
SW-620 colon
  GI50: 12.5 µM
  TGI: > 50 µM
HT29 colon
  GI50: 23.5 µM
  TGI: > 50 µM
ACHN renal
  GI50: 3.62 µM
  TGI: > 50 µM
MCF7 breast
  GI50: 27 µM
  TGI: > 50 µM
HOP-92 NSCLC
  GI50: 23.6 µM
  TGI: > 50 µM
CCRF-CEM leukemia
  GI50: 19.5 µM
  TGI: > 50 µM
MOLT-4 leukemia
  GI50: 22 µM
  TGI: > 50 µM
SNB-75 CNS
  GI50: 23 µM
  TGI: > 50 µM
MDA-MB-231 breast
  GI50: 17.7 µM
  TGI: > 50 µM
NCI-H226 lung
  GI50: > 50 µM
  TGI: > 50 µM
UO-31 renal
  GI50: 1.65 µM
  TGI: 11.3 µM
NCI/ADR-RES ovarian
  GI50: 1.58 µM
  TGI: > 50 µM
SF-268 CNS
  GI50: 14.6 µM
  TGI: > 50 µM
M14 melanoma
  GI50: 7.54 µM
  TGI: > 50 µM
OVCAR-4 ovarian
  GI50: 10.1 µM
  TGI: > 50 µM
SR leukemia
  GI50: 8.78 µM
  TGI: 40 µM
NCI-H522 lung
  GI50: > 50 µM
  TGI: > 50 µM
A498 renal
  GI50: > 50 µM
  TGI: > 50 µM
BT-549 breast
  GI50: 15 µM
  TGI: > 50 µM
RPMI-8226 leukemia
  GI50: 19.6 µM
  TGI: > 50 µM
LOX IMVI melanoma
  GI50: 9.7 µM
  TGI: > 50 µM
T-47D breast
  GI50: 13.1 µM
  TGI: 42.3 µM
HCT-15 colon
  GI50: 2.17 µM
  TGI: > 50 µM
NCI-H460 lung
  GI50: 5.65 µM
  TGI: 36.3 µM
SK-MEL-5 melanoma
  GI50: 20.8 µM
  TGI: > 50 µM
IGROV1 ovarian
  GI50: 9.16 µM
  TGI: > 50 µM
K-562 leukemia
  GI50: 25.8 µM
  TGI: > 50 µM
HCT-116 colon
  GI50: 7.64 µM
  TGI: 25.4 µM
SK-MEL-2 melanoma
  GI50: 8.23 µM
  TGI: 29.8 µM
